Assay results published in ChEMBL document CHEMBL4308841, “Synthesis, in vitro antiproliferative activity, and kinase inhibitory effects of pyrazole-containing diarylureas and diarylamides” (Eur J Med Chem, 2018).

system: MOLT-4; assay: Growth inhibition of human MOLT4 cells assessed as cell growth at 10 uM incubated for 48 hrs by sulforhodamine B assay relative to control; format: functional; conditions: MOLT-4, 48 h, read-out: Activity

Compound	growth at 10 µM
O=C(Nc1cccc(-n2cc(-c3ccncc3)c(-c3cc(O)cc(Cl)c3)n2)c1)c1cc(C(F)(F)F)cc(C(F)(F)F)c1	19.5%

system: HOP-62; assay: Growth inhibition of human HOP62 cells assessed as cell growth at 10 uM incubated for 48 hrs by sulforhodamine B assay relative to control; format: functional; conditions: HOP-62, 48 h, read-out: Activity

Compound	growth at 10 µM
O=C(Nc1cccc(-n2cc(-c3ccncc3)c(-c3cc(O)cc(Cl)c3)n2)c1)c1cc(C(F)(F)F)cc(C(F)(F)F)c1	58.3%

system: NCI-H226; assay: Growth inhibition of human NCI-H226 cells assessed as cell growth at 10 uM incubated for 48 hrs by sulforhodamine B assay relative to control; format: functional; conditions: NCI-H226, 48 h, read-out: Activity

Compound	growth at 10 µM
O=C(Nc1cccc(-n2cc(-c3ccncc3)c(-c3cc(O)cc(Cl)c3)n2)c1)c1cc(C(F)(F)F)cc(C(F)(F)F)c1	96%

system: NCI-H460; assay: Growth inhibition of human NCI-H460 cells assessed as cell growth at 10 uM incubated for 48 hrs by sulforhodamine B assay relative to control; format: functional; conditions: NCI-H460, 48 h, read-out: Activity

Compound	growth at 10 µM
O=C(Nc1cccc(-n2cc(-c3ccncc3)c(-c3cc(O)cc(Cl)c3)n2)c1)c1cc(C(F)(F)F)cc(C(F)(F)F)c1	19.9%

system: HCT-116; assay: Growth inhibition of human HCT116 cells assessed as cell growth at 10 uM incubated for 48 hrs by sulforhodamine B assay relative to control; format: functional; conditions: HCT-116, 48 h, read-out: Activity

Compound	growth at 10 µM
O=C(Nc1cccc(-n2cc(-c3ccncc3)c(-c3cc(O)cc(Cl)c3)n2)c1)c1cc(C(F)(F)F)cc(C(F)(F)F)c1	24.6%

system: LOX IMVI; assay: Growth inhibition of human LOXIMVI cells assessed as cell growth at 10 uM incubated for 48 hrs by sulforhodamine B assay relative to control; format: functional; conditions: read-out: Activity

Compound	growth at 10 µM
O=C(Nc1cccc(-n2cc(-c3ccncc3)c(-c3cc(O)cc(Cl)c3)n2)c1)c1cc(C(F)(F)F)cc(C(F)(F)F)c1	10.5%

system: MDA-MB-435; assay: Growth inhibition of human MDA-MB-435 cells assessed as cell growth at 10 uM incubated for 48 hrs by sulforhodamine B assay relative to control; format: functional; conditions: MDA-MB-435, 48 h, read-out: Activity

Compound	growth at 10 µM
O=C(Nc1cccc(-n2cc(-c3ccncc3)c(-c3cc(O)cc(Cl)c3)n2)c1)c1cc(C(F)(F)F)cc(C(F)(F)F)c1	45.6%

system: UACC-257; assay: Growth inhibition of human UACC257 cells assessed as cell growth at 10 uM incubated for 48 hrs by sulforhodamine B assay relative to control; format: functional; conditions: UACC-257, 48 h, read-out: Activity

Compound	growth at 10 µM
O=C(Nc1cccc(-n2cc(-c3ccncc3)c(-c3cc(O)cc(Cl)c3)n2)c1)c1cc(C(F)(F)F)cc(C(F)(F)F)c1	71%

system: UACC-62; assay: Growth inhibition of human UACC62 cells assessed as cell growth at 10 uM incubated for 48 hrs by sulforhodamine B assay relative to control; format: functional; conditions: UACC-62, 48 h, read-out: Activity

Compound	growth at 10 µM
O=C(Nc1cccc(-n2cc(-c3ccncc3)c(-c3cc(O)cc(Cl)c3)n2)c1)c1cc(C(F)(F)F)cc(C(F)(F)F)c1	69.3%

system: IGROV-1; assay: Growth inhibition of human IGROV1 cells assessed as cell growth at 10 uM incubated for 48 hrs by sulforhodamine B assay relative to control; format: functional; conditions: IGROV-1, 48 h, read-out: Activity

Compound	growth at 10 µM
O=C(Nc1cccc(-n2cc(-c3ccncc3)c(-c3cc(O)cc(Cl)c3)n2)c1)c1cc(C(F)(F)F)cc(C(F)(F)F)c1	73%

system: OVCAR-3; assay: Growth inhibition of human OVCAR3 cells assessed as cell growth at 10 uM incubated for 48 hrs by sulforhodamine B assay relative to control; format: functional; conditions: OVCAR-3, 48 h, read-out: Activity

Compound	growth at 10 µM
O=C(Nc1cccc(-n2cc(-c3ccncc3)c(-c3cc(O)cc(Cl)c3)n2)c1)c1cc(C(F)(F)F)cc(C(F)(F)F)c1	15.2%

system: NCI/ADR-RES; assay: Growth inhibition of human NCI/ADR-RES cells assessed as cell growth at 10 uM incubated for 48 hrs by sulforhodamine B assay relative to control; format: functional; conditions: read-out: Activity

Compound	growth at 10 µM
O=C(Nc1cccc(-n2cc(-c3ccncc3)c(-c3cc(O)cc(Cl)c3)n2)c1)c1cc(C(F)(F)F)cc(C(F)(F)F)c1	46.9%

system: SK-OV-3; assay: Growth inhibition of human SKOV3 cells assessed as cell growth at 10 uM incubated for 48 hrs by sulforhodamine B assay relative to control; format: functional; conditions: SK-OV-3, 48 h, read-out: Activity

Compound	growth at 10 µM
O=C(Nc1cccc(-n2cc(-c3ccncc3)c(-c3cc(O)cc(Cl)c3)n2)c1)c1cc(C(F)(F)F)cc(C(F)(F)F)c1	68.8%

system: 786-0; assay: Growth inhibition of human 786-0 cells assessed as cell growth at 10 uM incubated for 48 hrs by sulforhodamine B assay relative to control; format: functional; conditions: 786-0, 48 h, read-out: Activity

Compound	growth at 10 µM
O=C(Nc1cccc(-n2cc(-c3ccncc3)c(-c3cc(O)cc(Cl)c3)n2)c1)c1cc(C(F)(F)F)cc(C(F)(F)F)c1	55.1%

system: ACHN; assay: Growth inhibition of human ACHN cells assessed as cell growth at 10 uM incubated for 48 hrs by sulforhodamine B assay relative to control; format: functional; conditions: read-out: Activity

Compound	growth at 10 µM
O=C(Nc1cccc(-n2cc(-c3ccncc3)c(-c3cc(O)cc(Cl)c3)n2)c1)c1cc(C(F)(F)F)cc(C(F)(F)F)c1	37.7%

system: CAKI-1; assay: Growth inhibition of human Caki1 cells assessed as cell growth at 10 uM incubated for 48 hrs by sulforhodamine B assay relative to control; format: functional; conditions: CAKI-1, 48 h, read-out: Activity

Compound	growth at 10 µM
O=C(Nc1cccc(-n2cc(-c3ccncc3)c(-c3cc(O)cc(Cl)c3)n2)c1)c1cc(C(F)(F)F)cc(C(F)(F)F)c1	58.5%

system: RXF 393; assay: Growth inhibition of human RXF393 cells assessed as cell growth at 10 uM incubated for 48 hrs by sulforhodamine B assay relative to control; format: functional; conditions: RXF 393, 48 h, read-out: Activity

Compound	growth at 10 µM
O=C(Nc1cccc(-n2cc(-c3ccncc3)c(-c3cc(O)cc(Cl)c3)n2)c1)c1cc(C(F)(F)F)cc(C(F)(F)F)c1	-10.3%

system: SN12C; assay: Growth inhibition of human SN12C cells assessed as cell growth at 10 uM incubated for 48 hrs by sulforhodamine B assay relative to control; format: functional; conditions: read-out: Activity

Compound	growth at 10 µM
O=C(Nc1cccc(-n2cc(-c3ccncc3)c(-c3cc(O)cc(Cl)c3)n2)c1)c1cc(C(F)(F)F)cc(C(F)(F)F)c1	50.3%

system: UO-31; assay: Growth inhibition of human UO31 cells assessed as cell growth at 10 uM incubated for 48 hrs by sulforhodamine B assay relative to control; format: functional; conditions: UO-31, 48 h, read-out: Activity

Compound	growth at 10 µM
O=C(Nc1cccc(-n2cc(-c3ccncc3)c(-c3cc(O)cc(Cl)c3)n2)c1)c1cc(C(F)(F)F)cc(C(F)(F)F)c1	49.1%
